Target: T1, G9a (Homo sapiens, UniProt Q96KQ7)
T1 construct: His6 (N); made in house; host or cells: E. coli BL21 (DE3)pLysS-rosetta
T1 sequence (Q96KQ7 1-1210): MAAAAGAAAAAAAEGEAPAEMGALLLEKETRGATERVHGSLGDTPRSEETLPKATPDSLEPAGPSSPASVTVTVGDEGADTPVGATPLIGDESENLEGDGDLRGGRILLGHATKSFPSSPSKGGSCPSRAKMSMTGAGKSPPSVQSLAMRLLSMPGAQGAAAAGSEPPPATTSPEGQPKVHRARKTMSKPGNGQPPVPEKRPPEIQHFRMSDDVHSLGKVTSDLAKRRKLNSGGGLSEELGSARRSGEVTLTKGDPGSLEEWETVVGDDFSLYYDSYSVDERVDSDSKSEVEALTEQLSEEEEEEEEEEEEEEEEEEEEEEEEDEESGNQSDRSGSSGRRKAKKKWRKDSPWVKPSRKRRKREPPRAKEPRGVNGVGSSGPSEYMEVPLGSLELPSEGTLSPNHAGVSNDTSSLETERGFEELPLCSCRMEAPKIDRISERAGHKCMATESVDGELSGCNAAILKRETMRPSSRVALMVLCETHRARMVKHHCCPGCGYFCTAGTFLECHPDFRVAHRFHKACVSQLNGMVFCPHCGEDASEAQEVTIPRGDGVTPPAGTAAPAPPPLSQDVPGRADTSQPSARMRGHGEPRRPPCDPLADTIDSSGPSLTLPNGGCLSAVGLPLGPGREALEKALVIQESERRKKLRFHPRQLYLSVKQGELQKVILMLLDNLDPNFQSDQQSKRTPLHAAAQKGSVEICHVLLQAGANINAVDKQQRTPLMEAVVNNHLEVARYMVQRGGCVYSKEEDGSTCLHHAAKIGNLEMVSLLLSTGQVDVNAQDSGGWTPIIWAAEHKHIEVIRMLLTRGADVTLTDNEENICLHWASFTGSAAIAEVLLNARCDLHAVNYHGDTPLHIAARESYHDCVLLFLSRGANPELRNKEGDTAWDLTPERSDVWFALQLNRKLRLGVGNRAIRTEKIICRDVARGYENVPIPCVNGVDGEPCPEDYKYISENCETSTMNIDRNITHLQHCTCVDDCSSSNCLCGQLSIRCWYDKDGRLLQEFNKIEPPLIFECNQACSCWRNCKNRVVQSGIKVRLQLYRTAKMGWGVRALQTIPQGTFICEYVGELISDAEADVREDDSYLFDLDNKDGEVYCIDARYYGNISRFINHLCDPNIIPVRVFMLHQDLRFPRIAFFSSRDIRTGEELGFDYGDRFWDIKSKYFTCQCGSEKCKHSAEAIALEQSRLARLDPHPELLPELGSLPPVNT
Test: MALDI-TOF MS methylation assay of H3K9 peptides with G9a
Type: biochemical
Details: peptide 100 µM, G9a 2 µM, SAM 500 µM, 1 h, 37 °C
Experimental: MALDI-MS methyltransferases activity experiments were performed using a Bruker instrument in the reflectron positive mode. For regular methyltransferase standard conditions experiment which carried out in 30 µL total volume, the mixture contains peptide (100 µM), SAM (200 µM), SETD8 or SETD7 (2 µM), in assay buffer 50 mM Tris at optimal pH 8.0. In case of G9a and GLP, similar conditions were used, except (500 µM) of SAM was added to the reaction mixture. Samples were incubated in an Eppendorf vial 1.5 mL using thermomixer for 1 h at 37 °C. A 5 µL aliquot of the solution was mixed with 5 µL of MeOH, after which 5 µL of this mixture was mixed with 5 µL of α-cyano-4-hydroxycinamic acid matrix (CHCA, 5 mg/mL in 125:125 µL acetonitrile/water). The spots were placed on a stainless steel MALDI plate (MS 96 target ground steel BC of Bruker, Germany). The mass corresponding to one monomethylation observed as +14 Da, dimethylation observed as +28 Da and trimethylation observed as +42 Da. The enzymatic activity was determined by taking the peak areas of each methylation state, including all isotopes and adducts, and was annotated using FlexAnalysis software (Bruker Daltonics, Germany). […] Methylated peptide substrates were repeated five times and the unmethylated substrates were triplicated. Sequences of the examined peptides are given in (Supplementary Table 1).

G9a-catalyzed methylation, result in words: traces detected
G9a-catalyzed methylation, result in words (listed as H3K ba9): trace of monomethylation
Substance: ARTKQTAR(Kba9)STGGKA [H3Kba9]

Source: publication PMC7048932, “Examining sterically demanding lysine analogs for histone lysine methyltransferase catalysis” (Scientific Reports, 2020)
